In paper PMC11671014 (PLOS Pathogens, 2024):
Where two headings read alike, the source gives them in different places.

Tests used:
[1] = system: P. falciparum Brazilian field isolates; assay: Ex vivo drug susceptibility of Brazilian field isolates (P. falciparum); format: cell-based; conditions: Plasmodium falciparum
Experimental: (§1) Compounds were assayed on ten P. vivax isolates and seven P. falciparum Brazilian isolates collected from mono-infected patients, who had signed a written informed consent form to participate in the study, using previously described methods. The initial parasitemia ranged from 2,100–8,000 parasites/μL for P. vivax and 3,500–9,000 parasites/μL for P. falciparum isolates. Artesunate and chloroquine were assayed in parallel as standard compounds. The analyses included only the isolates that were incubated for ≥ 40 h with the compounds.

[2] = system: P. vivax Brazilian field isolates; assay: Ex vivo drug susceptibility of Brazilian field isolates (P. vivax); format: cell-based; conditions: Plasmodium vivax
Experimental: as §1

[3] = system: stage V NF54 strain male and female gametocytes; assay: P. falciparum Dual Gamete Formation Assay (PfDGFA); format: cell-based; conditions: Plasmodium falciparum, 48 h
Experimental: Inhibition of the viability of stage V male and female gametocytes was assessed in the P. falciparum Dual Gamete Formation Assay (PfDGFA) as described previously. Briefly, mature stage V NF54 strain gametocytes were incubated with test molecules for 48 h in 384-well plates at 37°C. Gametogenesis was then triggered by cooling the plates to room temperature and addition of xanthurenic acid-containing activating medium (also containing anti-Pfs25 antibody (Mab 4B7) conjugated to a Cy3 fluorophore). Twenty minutes after activation, exflagellation was imaged in all wells of the plate using a x4 objective and automated brightfield microscopy. The plate was then incubated at 20°C for a further 24 h in the dark. Thereafter, female gamete formation was quantified by automated identification of Pfs25-positive cells. Automated counts were transformed to percent inhibition values with reference to positive 100 nM Cabamiquine (DDD498) and negative (DMSO) controls. Data represent the means of multiple independent biological repeats.

[4] = system: P. falciparum (strain 3D7A); assay: Parasite Reduction Rate (PRR) estimation; format: cell-based, Plasmodium falciparum; conditions: 10 x IC50
Experimental: PRR was assessed using a standardized method. P. falciparum (strain 3D7A, MRA-151), contributed by David Walliker, was obtained through BEI Resources, NIAID, NIH. Cultures of parasites (~90% ring stage) were treated with compounds for 120 h, with daily renewal. Samples of parasites were taken at 0, 24, 48, 72, 96 and 120 h. Compounds were washed out and four independent 3-fold serial dilutions were established in 96-well plates, with fresh RBCs and culture medium. After 18 days, and again at 22 days, samples were taken to examine growth using SYBR Green I in an EnVision Multilabel Plate Reader (Perkin Elmer) and analysed using Excel and Grafit 5.0 software. The human biological samples were sourced ethically, and their research use was in accord with the terms of the informed consents under an IRB/EC approved protocol.

[5] = Rat pharmacokinetics; format: in vivo, Sprague-Dawley rats; conditions: for half-life: read-out: T1/2z (converted)
Experimental: Sprague-Dawley rats (11 weeks old) were sourced from Hilltop Lab Animals, Inc (Scottdale, Pennsylvania, USA). […] Blood was collected from a jugular cannula at 0.083, 0.25, 0.5, 1, 2, 4, 8 and 24 h post i.v. dosing, and at the same times (except the 0.083-h sample) following oral administration. A portion of the blood samples were processed into plasma. Samples were precipitated with 0.5% formic acid in methanol and the supernatants were analysed by positive ion electrospray LC-MS for the administered compound. Non-compartmental pharmacokinetic parameters were calculated from individual concentration vs time profiles using Phoenix 64 WinNonlin (Version 8.1 Certara, Princeton NJ).

[6] = Solubility; format: physicochemical
[7] = system: CAM 3.II Rev parasites, trophozoite and schizont stages; assay: Pulsed exposure viability of trophozoite and schizont stages, flow cytometry of Syto-61-labelled parasites; format: cell-based, Plasmodium falciparum; conditions: for LD50 Troph: trophozoite
[8] = system: stage V NF54 strain male and female gametocytes; set-up: method as in ref [1] Xie et al., Science 2022; conditions: 48 h, ref [1] Xie et al., Science 2022, cited from earlier work
[9] = female, read-out: Dual gamete formation assay (female) IC50(48h)
[10] = male, read-out: Dual gamete formation assay (male) IC50(48h)
[11] = male, Sprague-Dawley, IV 1 mg/kg, plasma
[12] = male, Sprague-Dawley, PO 1 mg/kg, plasma
[13] = male, Sprague-Dawley, PO 10 mg/kg, plasma
[14] = male, Sprague-Dawley, PO 25 mg/kg, plasma
[15] = male, Sprague-Dawley, whole blood, IV 1 mg/kg, blood
[16] = male, Sprague-Dawley, whole blood, PO 1 mg/kg, blood
[17] = male, Sprague-Dawley, whole blood, PO 10 mg/kg, blood
[18] = male, Sprague-Dawley, whole blood, PO 25 mg/kg, blood

CC(C)c1nn([C@@H]2O[C@H](COS(N)(=O)=O)[C@@H](O)[C@H]2O)c2ncnc(N)c12 [ML471, ((2R,3S,4R,5R)-5-(4-amino-3-isopropyl-1H-pyrazolo[3,4-d]pyrimidin-1-yl)-3,4-dihydroxytetrahydrofuran-2-yl)methyl sulfamate]
EC50 ([1]; range over n = 7 isolates, read-out: EC50 range, P. falciparum Brazilian field isolates): 2.5 to 4.9 nM
EC50 ([1]; read-out: Median EC50, P. falciparum Brazilian field isolates): 4.2 nM
EC50 ([2]; range over n = 10 isolates, read-out: EC50 range, P. vivax Brazilian field isolates): 1.2 to 62 nM
EC50 ([2]; read-out: Median EC50, P. vivax Brazilian field isolates): 8 nM
IC50 [3, 9]: 260 nM
IC50 [3, 10]: 49 nM
Lag phase [4]: 0 h
Log PRR [4]: 4.1
PCT99.9% [4]: 32 h
Slope [4]: -0.09
dose recovered in 0–24 h urine as parent ([5]; 0–24 h urine): 9–38 % of the dose
area under the curve ([5]; 25 mg/kg p.o., blood): 30 µM·h
blood clearance as share of liver blood flow ([5]; IV dose of 1 mg/kg): ~ 4 % of liver blood flow
Cmax [5, 11]: 1540 nM
Tmax [5, 11]: 0.08 h
clearance [5, 11]: 64 mL/min/kg
half-life [5, 11]: 2.22 h
Cmax [5, 12]: 19.1 nM
Tmax [5, 12]: 0.5 h
bioavailability ([5]; male, Sprague-Dawley, PO 1 mg/kg, plasma, read-out: %F): 27.7%
half-life [5, 12]: 8.78 h
Cmax [5, 13]: 196 nM
Tmax [5, 13]: 0.38 h
bioavailability ([5]; male, Sprague-Dawley, PO 10 mg/kg, plasma, read-out: %F): 25.2%
half-life [5, 13]: 9.15 h
Cmax [5, 14]: 393 nM
Tmax [5, 14]: 0.75 h
bioavailability ([5]; male, Sprague-Dawley, PO 25 mg/kg, plasma, read-out: %F): 16.4%
half-life [5, 14]: 3.57 h
Vd ([5]; male, Sprague-Dawley, plasma, iv, 1 mg/kg, IV 1 mg/kg, plasma, read-out: Vss): 2.79 L/kg
Vd ([5]; male, Sprague-Dawley, plasma, iv, 1 mg/kg, IV 1 mg/kg, plasma, read-out: Vz): 12.3 L/kg
blood plasma ratio at 0.083 h ([5]; male, Sprague-Dawley, whole blood and plasma, intravenous, 1 mg/kg, time 0.083 h): 0.8
blood plasma ratio at 0.25 h ([5]; male, Sprague-Dawley, whole blood and plasma, intravenous, 1 mg/kg, time 0.25 h): 1.5
blood plasma ratio at 0.5 h ([5]; male, Sprague-Dawley, whole blood and plasma, intravenous, 1 mg/kg, time 0.5 h): 2.1
blood plasma ratio at 1 h ([5]; male, Sprague-Dawley, whole blood and plasma, intravenous, 1 mg/kg, time 1 h): 5.5
blood plasma ratio at 2 h ([5]; male, Sprague-Dawley, whole blood and plasma, intravenous, 1 mg/kg, time 2 h): 17.8
blood plasma ratio at 4 h ([5]; male, Sprague-Dawley, whole blood and plasma, intravenous, 1 mg/kg, time 4 h): 48.9
blood plasma ratio at 8 h ([5]; male, Sprague-Dawley, whole blood and plasma, intravenous, 1 mg/kg, time 8 h): 114
blood plasma ratio ([5]; male, Sprague-Dawley, whole blood and plasma, iv, 1 mg/kg, i.v. PK study, read-out: blood to plasma ratio at the initial sampling times): ~1
Cmax [5, 15]: 1180 nM
Tmax [5, 15]: 0.17 h
clearance [5, 15]: 2.3 mL/min/kg
half-life [5, 15]: 36.6 h
Cmax [5, 16]: 39.3 nM
Tmax [5, 16]: 16 h
bioavailability ([5]; male, Sprague-Dawley, whole blood, PO 1 mg/kg, blood, read-out: %F): 9.29%
half-life [5, 16]: 23.2 h
Cmax [5, 17]: 261 nM
Tmax [5, 17]: 6 h
bioavailability ([5]; male, Sprague-Dawley, whole blood, PO 10 mg/kg, blood, read-out: %F): 9.56%
half-life [5, 17]: 29.5 h
Cmax [5, 18]: 669 nM
Tmax [5, 18]: 8 h
bioavailability ([5]; male, Sprague-Dawley, whole blood, PO 25 mg/kg, blood, read-out: %F): 8.72%
half-life ([5]; male, Sprague-Dawley, whole blood, PO 25 mg/kg, blood, terminal half-life, T1/2∞): 30.5 h
Vd ([5]; male, Sprague-Dawley, whole blood, iv, 1 mg/kg, IV 1 mg/kg, blood, read-out: Vss): 6.25 L/kg
Vd ([5]; male, Sprague-Dawley, whole blood, iv, 1 mg/kg, IV 1 mg/kg, blood, read-out: Vz): 6.54 L/kg
bioavailability ([5]; male, Sprague-Dawley, whole blood, oral, blood, range over doses, read-out: %F (blood), rat oral bioavailability): 8.72 to 9.56%
solubility [6]: > 100 µM

Nc1ncnc2c1c(OC(F)F)nn2[C@@H]1O[C@H](COS(N)(=O)=O)[C@@H](O)[C@H]1O [ML901]
LD50 Schizont ([7]; 30 h continuous): 8.5 ± 0.7 nM
LD50 Schizont ([7]; drug pulse time 3 h): 88 ± 1 nM
LD50 Schizont ([7]; drug pulse time 6 h): 36 ± 6 nM
LD50 Schizont ([7]; drug pulse time 9 h): 21 ± 12 nM
fold lower sensitivity of trophozoite stage compared with schizont stage ([7]; short pulses of 3 h or 6 h): 10 to 20 fold
LD50 Troph ([7]; 48 h continuous): 3.9 ± 0.8 nM
LD50 Troph ([7]; drug pulse time 3 h): 1700 ± 460 nM
LD50 Troph ([7]; drug pulse time 6 h): 680 ± 48 nM
LD50 Troph ([7]; drug pulse time 9 h): 290 ± 150 nM
LD50 Troph ([7]; drug pulse time 24 h): 4.0 ± 0.0 nM
IC50 [8, 9]: 4700 nM
IC50 [8, 10]: 130 ± 10 nM
